Measured values from US5140014A (Abbott Laboratories, priority 1989, dated 1992).
Values after ≈ are worked out from the molar mass of the structure shown. Read-outs that look alike come from different tables or passages of the source.

Legend:
Test in all cases: in vitro antibacterial activity, agar dilution method (MIC)
Assay type in all cases: cell-based
[1] = system: Escherichia Coli; conditions: BHI agar, 20-24 hours
Procedure: (§1) Compounds 1 to 8 were evaluated for antibacterial activity by the agar dilution method to determine the degree of in vitro susceptibility of aerobic microorganisms to antimicrobial agents. The test medium was Brain Heart Infusion (BHI) agar. The antibacterial agent was dissolved at a concentration of 2,000 ug/mL. Test plates were then prepared, usually 12 two-fold dilutions. After adding the sample to the plates, 10 mL of cooled BHI agar medium was added to each plate. The organisms were grown overnight in BHI broth (Difco) in a 35°-37° C. incubator.
(§2) On the day of testing, the bacterial suspensions were diluted 1:100 in sterile distilled water, except for a few slow-growing organisms (usually Micrococcus and Streptococcus) which were diluted 1:10. The plate was then inoculated with approximately 10^4 organisms. This was incubated in a 35°-37° C. incubator for 20-24 hours. Thereafter, the plates were read to determine the minimum inhibitory concentration (MIC) defined as the lowest concentration of drug yielding no growth on the plate, a slight haze, or sparsely isolated colonies on the inoculum spot as compared to the growth control.

[2] = system: Pseudomonas Cepacia; conditions: Burkholderia cepacia; strain 296I; BHI agar, 20-24 hours; read-out: MIC
Procedure: as §1, §2

[3] = system: Staphylococcus Epidermidis; conditions: Staphylococcus epidermidis, strain 3519; BHI agar, 20-24 hours; read-out: MIC
Procedure: (§3) The test medium was Brain Heart Infusion (BHI) agar. The antibacterial agent was dissolved at a concentration of 2,000 ug/mL. Test plates were then prepared, usually 12 two-fold dilutions. After adding the sample to the plates, 10 mL of cooled BHI agar medium was added to each plate. The organisms were grown overnight in BHI broth (Difco) in a 35°-37° C. incubator.
as §2

[4] = system: Enterococcus Faecium; conditions: Enterococcus faecium, ATCC8043, strain ATCC 8043; BHI agar, 20-24 hours; read-out: MIC
Procedure: as §3, §2

[5] = system: Pseudomonas Aeruginosa; conditions: Pseudomonas aeruginosa, BHI agar, 20-24 hours, read-out: MIC
Procedure: as §3, §2

[6] = system: Haemophilus Influenzae; conditions: BHI agar, 20-24 hours
Procedure: as §3, §2

[7] = system: Staphylococcus Aureus; conditions: Staphylococcus aureus, BHI agar, 20-24 hours, read-out: MIC
Procedure: as §3, §2

[8] = system: Acinetobacter Sp; conditions: Acinetobacter, strain CMX 669; BHI agar, 20-24 hours; read-out: MIC
Procedure: as §3, §2

[9] = system: Streptococcus Agalactiae; conditions: Streptococcus agalactiae
Procedure: as §3, §2

[10] = system: Streptococcus Bovis; conditions: Streptococcus equinus, strain A5169, BHI agar, 20-24 hours
Procedure: as §3, §2

[11] = system: Providencia Stuartii; conditions: Providencia stuartii; strain CMX 640; BHI agar, 20-24 hours; read-out: MIC
Procedure: as §3, §2

[12] = system: Streptococcus Pyogenes; conditions: Streptococcus pyogenes
Procedure: as §3, §2

[13] = system: Micrococcus Luteus; conditions: Micrococcus luteus, BHI agar, 20-24 hours, read-out: MIC
Procedure: as §3, §2

[14] = system: Klebsiella Pneumoniae; conditions: Klebsiella pneumoniae, ATCC8045, strain ATCC 8045; BHI agar, 20-24 hours; read-out: MIC
Procedure: as §3, §2

[15] = system: Enterobacter Aerogenes; conditions: Klebsiella aerogenes, ATCC13048, strain ATCC 13048; BHI agar, 20-24 hours; read-out: MIC
Procedure: as §3, §2

[16] = Escherichia coli, strain DC-2, read-out: MIC
[17] = Escherichia coli, strain JUHL, read-out: MIC
[18] = Escherichia coli, strain KNK 437, read-out: MIC
[19] = Escherichia coli, strain SS, read-out: MIC
[20] = Haemophilus influenzae, ATCC9795, strain ATCC 9795, read-out: MIC
[21] = Haemophilus influenzae, ATCC10211, strain ATCC 10211, read-out: MIC
[22] = Haemophilus influenzae, ATCC19418, strain ATCC 19418, read-out: MIC
[23] = Haemophilus influenzae, strain 504, read-out: MIC
[24] = Haemophilus influenzae, strain 519A, read-out: MIC
[25] = Haemophilus influenzae, strain 566A, read-out: MIC
[26] = Haemophilus influenzae, strain 632A, read-out: MIC
[27] = Haemophilus influenzae, strain 747C, read-out: MIC
[28] = Haemophilus influenzae, strain 751, read-out: MIC
[29] = Haemophilus influenzae, strain 1177, read-out: MIC
[30] = Haemophilus influenzae, strain 1435, read-out: MIC
[31] = Haemophilus influenzae, strain DILL AMP R, read-out: MIC
[32] = Haemophilus influenzae, strain SOL AMP R, read-out: MIC
[33] = Haemophilus influenzae, strain SPK AMP R, read-out: MIC
[34] = strain 930 CONST, BHI agar, 20-24 hours, read-out: MIC
[35] = strain 2548 INDUC, BHI agar, 20-24 hours, read-out: MIC

Structure (SMILES): CCC1OC(=O)CC(O)C(C)C(OC2OC(C)CC(N(C)C)C2O)C(CC=O)CC(C)C(N(C)C)C=CC(C)=CC1COC(C)=O (stereo not shown) [Example 5, [9R]-23-O-Acetyl-9-deoxo-4'-deoxy-9-N,N-dimethylamino-5-O-mycaminosyl-tylonide]
- MIC [1, 16]: 6.2 mg/L (≈ 9.5 µM)
- MIC ([1]; Escherichia coli, strain H560, read-out: MIC): 3.1 mg/L (≈ 4.75 µM)
- MIC [1, 17]: 12.5 mg/L (≈ 19.1 µM)
- MIC [1, 18]: 12.5 mg/L (≈ 19.1 µM)
- MIC [1, 19]: 0.2 mg/L (≈ 0.306 µM)
- MIC [2]: > 100 mg/L
- MIC [3]: 0.39 mg/L (≈ 0.597 µM)
- MIC [4]: 0.1 mg/L (≈ 0.153 µM)
- MIC ([5]; strain A5007): > 100 mg/L
- MIC ([5]; strain BMH10): 100 mg/L (≈ 153 µM)
- MIC ([5]; strain K799/61): 1.56 mg/L (≈ 2.39 µM)
- MIC ([5]; strain K799/WT): > 100 mg/L
- MIC [6, 20]: 2 mg/L (≈ 3.06 µM)
- MIC [6, 21]: 2 mg/L (≈ 3.06 µM)
- MIC [6, 22]: 2 mg/L (≈ 3.06 µM)
- MIC ([6]; Haemophilus influenzae, ATCC43095, strain ATCC 43095, read-out: MIC): 2 mg/L (≈ 3.06 µM)
- MIC ([6]; Haemophilus influenzae, strain 503B, read-out: MIC): 2 mg/L (≈ 3.06 µM)
- MIC [6, 23]: 1 mg/L (≈ 1.53 µM)
- MIC [6, 24]: 1 mg/L (≈ 1.53 µM)
- MIC [6, 25]: 4 mg/L (≈ 6.13 µM)
- MIC ([6]; Haemophilus influenzae, strain 588A, read-out: MIC): 2 mg/L (≈ 3.06 µM)
- MIC [6, 26]: 2 mg/L (≈ 3.06 µM)
- MIC ([6]; Haemophilus influenzae, strain 667A, read-out: MIC): 2 mg/L (≈ 3.06 µM)
- MIC [6, 27]: 2 mg/L (≈ 3.06 µM)
- MIC [6, 28]: 4 mg/L (≈ 6.13 µM)
- MIC [6, 29]: 0.12 mg/L (≈ 0.184 µM)
- MIC [6, 30]: 1 mg/L (≈ 1.53 µM)
- MIC [6, 31]: 2 mg/L (≈ 3.06 µM)
- MIC [6, 32]: 2 mg/L (≈ 3.06 µM)
- MIC [6, 33]: 2 mg/L (≈ 3.06 µM)
- MIC ([7]; ATCC6538P, strain ATCC 6538P): 0.39 mg/L (≈ 0.597 µM)
- MIC ([7]; NCTC10649, strain NCTC 10649): 0.39 mg/L (≈ 0.597 µM)
- MIC ([7]; strain 45): 0.39 mg/L (≈ 0.597 µM)
- MIC ([7]; strain 45 RAR2): 0.78 mg/L (≈ 1.19 µM)
- MIC ([7]; strain 642A): 0.78 mg/L (≈ 1.19 µM)
- MIC ([7]; strain A5177): 0.39 mg/L (≈ 0.597 µM)
- MIC ([7]; strain CMX 553): 0.78 mg/L (≈ 1.19 µM)
- MIC [8]: 3.1 mg/L (≈ 4.75 µM)
- MIC [9]: 0.05 mg/L (≈ 0.0766 µM)
- MIC [10]: 0.05 mg/L (≈ 0.0766 µM)
- MIC [11]: > 100 mg/L
- MIC [12]: 0.05 mg/L (≈ 0.0766 µM)
- MIC [12, 34]: 50 mg/L (≈ 76.6 µM)
- MIC [12, 35]: 0.2 mg/L (≈ 0.306 µM)
- MIC ([13]; ATCC4698, strain ATCC 4698): 0.1 mg/L (≈ 0.153 µM)
- MIC ([13]; ATCC9341, strain ATCC 9341): 0.1 mg/L (≈ 0.153 µM)
- MIC [14]: 25 mg/L (≈ 38.3 µM)
- MIC [15]: 50 mg/L (≈ 76.6 µM)

Structure (SMILES): CCC1OC(=O)CC(O)C(C)C(OC2OC(C)C(O)C(N(C)C)C2O)C(CC=O)CC(C)C(N(C)C)CCC(C)=CC1COC(C)=O (stereo not shown) [Example 6, [9R]-23-O-Acetyl-9-deoxo-10,11-dihydro-9-N,N-dimethylamino-5-O-mycaminosyl-tylonide]
- MIC [1, 16]: 100 mg/L (≈ 149 µM)
- MIC [1, 17]: > 100 mg/L
- MIC [1, 18]: > 100 mg/L
- MIC [1, 19]: 1.56 mg/L (≈ 2.33 µM)
- MIC ([1]; strain H560): 50 mg/L (≈ 74.5 µM)
- MIC [2]: > 100 mg/L
- MIC [3]: 3.1 mg/L (≈ 4.62 µM)
- MIC [4]: 1.56 mg/L (≈ 2.33 µM)
- MIC ([5]; strain A5007): > 100 mg/L
- MIC ([5]; strain BMH10): > 100 mg/L
- MIC ([5]; strain K799/61): 6.2 mg/L (≈ 9.24 µM)
- MIC ([5]; strain K799/WT): > 100 mg/L
- MIC [6, 20]: 4 mg/L (≈ 5.96 µM)
- MIC [6, 21]: 4 mg/L (≈ 5.96 µM)
- MIC [6, 22]: 8 mg/L (≈ 11.9 µM)
- MIC [6, 23]: 2 mg/L (≈ 2.98 µM)
- MIC [6, 24]: 2 mg/L (≈ 2.98 µM)
- MIC [6, 25]: 8 mg/L (≈ 11.9 µM)
- MIC [6, 26]: 8 mg/L (≈ 11.9 µM)
- MIC [6, 27]: 8 mg/L (≈ 11.9 µM)
- MIC [6, 28]: > 16 mg/L
- MIC [6, 29]: 0.25 mg/L (≈ 0.373 µM)
- MIC [6, 30]: 4 mg/L (≈ 5.96 µM)
- MIC [6, 31]: 4 mg/L (≈ 5.96 µM)
- MIC [6, 32]: 8 mg/L (≈ 11.9 µM)
- MIC [6, 33]: 8 mg/L (≈ 11.9 µM)
- MIC ([6]; strain 503B): 8 mg/L (≈ 11.9 µM)
- MIC ([6]; strain ATCC 43095): 8 mg/L (≈ 11.9 µM)
- MIC ([7]; ATCC6538P, strain ATCC 6538P): 3.1 mg/L (≈ 4.62 µM)
- MIC ([7]; NCTC10649, strain NCTC 10649): 3.1 mg/L (≈ 4.62 µM)
- MIC ([7]; strain 45): 3.1 mg/L (≈ 4.62 µM)
- MIC ([7]; strain 45 RAR2): 6.2 mg/L (≈ 9.24 µM)
- MIC ([7]; strain 642A): 6.2 mg/L (≈ 9.24 µM)
- MIC ([7]; strain A5177): 3.1 mg/L (≈ 4.62 µM)
- MIC ([7]; strain CMX 553): 6.2 mg/L (≈ 9.24 µM)
- MIC [8]: > 100 mg/L
- MIC ([9]; strain CMX 508, BHI agar, 20-24 hours, read-out: MIC): 0.39 mg/L (≈ 0.581 µM)
- MIC ([10]; read-out: MIC): 0.1 mg/L (≈ 0.149 µM)
- MIC [11]: > 100 mg/L
- MIC [12, 34]: > 100 mg/L
- MIC [12, 35]: 3.1 mg/L (≈ 4.62 µM)
- MIC ([12]; strain EES61, BHI agar, 20-24 hours, read-out: MIC): 0.39 mg/L (≈ 0.581 µM)
- MIC ([13]; ATCC4698, strain ATCC 4698): 1.56 mg/L (≈ 2.33 µM)
- MIC ([13]; ATCC9341, strain ATCC 9341): 0.78 mg/L (≈ 1.16 µM)
- MIC [14]: > 100 mg/L
- MIC [15]: > 100 mg/L
